From ChEMBL document CHEMBL3885881, “DrugMatrix”

Organism: Rattus norvegicus
Assay: DrugMatrix - Regimen: Daily Repeat
Assay type: toxicity, organism-based, Sprague-Dawley
Set-up: regimen Daily Repeat, gender Male, age 6-8 weeks
Conditions: in vivo, po, route oral GAVAGE; for ABSOLUTE MONOCYTE / ABSOLUTE SEGMENTED NEUTROPHIL / BASOPHIL / EOSINOPHIL / ERYTHROCYTE COUNT / HEMATOCRIT / HEMOGLOBIN / LEUKOCYTE COUNT / LYMPHOCYTE / MEAN CORPUSCULAR HEMOGLOBIN / MEAN CORPUSCULAR HEMOGLOBIN CONCENTRATION / MEAN CORPUSCULAR VOLUME / MONOCYTE / NEUTROPHIL / NUCLEATED RED BLOOD CELLS / PLATELET COUNT / ABSOLUTE BASOPHIL / ABSOLUTE EOSINOPHIL / ABSOLUTE LYMPHOCYTE: tissue Blood; for ALANINE AMINOTRANSFERASE / ALBUMIN / ALKALINE PHOSPHATASE / ASPARTATE AMINOTRANSFERASE / BLOOD UREA NITROGEN / CARBON DIOXIDE / CHLORIDE / CHOLESTEROL / CREATINE PHOSPHOKINASE / CREATININE / GLUCOSE / LACTATE DEHYDROGENASE / LIPASE / PHOSPHORUS / POTASSIUM / SODIUM / TOTAL BILIRUBIN / TOTAL PROTEIN / URIC ACID: tissue Plasma
[1] = 20 mg/kg, 120 h, dose level Low, time 5 day, […]
[2] = 54 mg/kg, 72 h, dose level M1, time 3 day, vehicle 100 % WATER
[3] = 54 mg/kg, 120 h, dose level M1, time 5 day, vehicle 100 % WATER

## Cn1cnc([N+](=O)[O-])c1Sc1ncnc2nc[nH]c12 [AZATHIOPRINE]
[1]
  ABSOLUTE MONOCYTE: 73.67 CELLS/uL
  ABSOLUTE SEGMENTED NEUTROPHIL: 134 CELLS/uL
  BASOPHIL: 0%
  EOSINOPHIL: 0%
  ERYTHROCYTE COUNT: 5 x10E6/uL
  HEMATOCRIT: 31.27%
  HEMOGLOBIN: 12.3 G/DL
  LEUKOCYTE COUNT: 5.33 x10E3/uL
  LYMPHOCYTE: 96%
  MEAN CORPUSCULAR HEMOGLOBIN: 24.53 pg
  MEAN CORPUSCULAR HEMOGLOBIN CONCENTRATION: 39.33 G/DL
  MEAN CORPUSCULAR VOLUME: 62.43 fL
  MONOCYTE: 1.33%
  NEUTROPHIL: 2.67%
  NUCLEATED RED BLOOD CELLS: 0 /100WBC
  PLATELET COUNT: 1346.67 x10E3/uL
  ALANINE AMINOTRANSFERASE: 45.33 u/L
  ALBUMIN: 4.33 G/DL
  ALKALINE PHOSPHATASE: 305 u/L
  ASPARTATE AMINOTRANSFERASE: 83 u/L
  BLOOD UREA NITROGEN: 14 mg/dL
  CARBON DIOXIDE: 29.33 mmol/L
  CHLORIDE: 104.33 MEQ/L
  CHOLESTEROL: 75 mg/dL
  CREATINE PHOSPHOKINASE: 212.33 u/L
  CREATININE: 0.4 mg/dL
  GLUCOSE: 152.67 mg/dL
  LACTATE DEHYDROGENASE: 68 u/L
  LIPASE: 13 u/L
  PHOSPHORUS: 10.93 mg/dL
  POTASSIUM: 5.68 MEQ/L
  SODIUM: 146.9 MEQ/L
  TOTAL BILIRUBIN: 0.1 mg/dL
  TOTAL PROTEIN: 6.67 G/DL
  URIC ACID: 0.33 mg/dL
[2]
  ABSOLUTE BASOPHIL: 0 CELLS/uL
  ABSOLUTE EOSINOPHIL: 0 CELLS/uL
  ABSOLUTE LYMPHOCYTE: 10600.67 CELLS/uL
  ABSOLUTE MONOCYTE: 39.33 CELLS/uL
  ABSOLUTE SEGMENTED NEUTROPHIL: 326.67 CELLS/uL
  BASOPHIL: 0%
  EOSINOPHIL: 0%
  ERYTHROCYTE COUNT: 5.04 x10E6/uL
  HEMATOCRIT: 31.57%
  HEMOGLOBIN: 12.03 G/DL
  LEUKOCYTE COUNT: 10.97 x10E3/uL
  LYMPHOCYTE: 96.67%
  MEAN CORPUSCULAR HEMOGLOBIN: 23.9 pg
  MEAN CORPUSCULAR HEMOGLOBIN CONCENTRATION: 38.13 G/DL
  MEAN CORPUSCULAR VOLUME: 62.73 fL
  MONOCYTE: 0.33%
  NEUTROPHIL: 3%
  NUCLEATED RED BLOOD CELLS: 0 /100WBC
  PLATELET COUNT: 1322.33 x10E3/uL
  ALANINE AMINOTRANSFERASE: 39.67 u/L
  ALBUMIN: 4.23 G/DL
  ALKALINE PHOSPHATASE: 313.33 u/L
  ASPARTATE AMINOTRANSFERASE: 66 u/L
  BLOOD UREA NITROGEN: 10.67 mg/dL
  CARBON DIOXIDE: 28.67 mmol/L
  CHLORIDE: 100 MEQ/L
  CHOLESTEROL: 81.67 mg/dL
  CREATINE PHOSPHOKINASE: 160.33 u/L
  CREATININE: 0.25 mg/dL
  GLUCOSE: 157.33 mg/dL
  LACTATE DEHYDROGENASE: 114.33 u/L
  LIPASE: 13 u/L
  PHOSPHORUS: 10.63 mg/dL
  POTASSIUM: 6.03 MEQ/L
  SODIUM: 141.9 MEQ/L
  TOTAL BILIRUBIN: 0.13 mg/dL
  TOTAL PROTEIN: 5.97 G/DL
  URIC ACID: 1.17 mg/dL
[3]
  ABSOLUTE BASOPHIL: 0 CELLS/uL
  ABSOLUTE EOSINOPHIL: 0 CELLS/uL
  ABSOLUTE LYMPHOCYTE: 4380.67 CELLS/uL
  ABSOLUTE MONOCYTE: 0 CELLS/uL
  ABSOLUTE SEGMENTED NEUTROPHIL: 119.33 CELLS/uL
  BASOPHIL: 0%
  EOSINOPHIL: 0%
  ERYTHROCYTE COUNT: 4.85 x10E6/uL
  HEMATOCRIT: 31.6%
  HEMOGLOBIN: 12.13 G/DL
  LEUKOCYTE COUNT: 4.5 x10E3/uL
  LYMPHOCYTE: 97.33%
  MEAN CORPUSCULAR HEMOGLOBIN: 25 pg
  MEAN CORPUSCULAR HEMOGLOBIN CONCENTRATION: 38.37 G/DL
  MEAN CORPUSCULAR VOLUME: 65.07 fL
  MONOCYTE: 0%
  NEUTROPHIL: 2.67%
  NUCLEATED RED BLOOD CELLS: 0 /100WBC
  PLATELET COUNT: 1116.33 x10E3/uL
  ALANINE AMINOTRANSFERASE: 29.67 u/L
